Source: patent US12139492B2 (Endotarget Inc., priority 2021, dated 2024)
pIC50: −log10 of the molar value.

Legend:
Type in all cases: cell-based
[1] = target: BTK (Homo sapiens, UniProt Q06187); experiment: BTK degradation, DC50 and Dmax of Table 1 (cell line not given); parameters: endogenous in cells; settings: for DC50: concentration giving 50% reduction of BTK expression level
[2] = tested on: JeKo-1 cells; experiment: Antiproliferative effect, MTS cell viability assay, JeKo-1 cells; settings: Homo sapiens; JeKo-1 mantle cell lymphoma cells; read-out: IC50 (anti-proliferation) JeKO-1 cells
How it was run: (§1)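 Tested at six concentrations (0 to 10 μM in tenfold steps), 72 h; viability by MTS, A490.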

[3] = tested on: Mino cells; experiment: Antiproliferative effect, MTS cell viability assay, Mino cells; settings: Homo sapiens, MINO, Mino mantle cell lymphoma cells; read-out: IC50 (anti-proliferation) Mino cells
How it was run: as §1

Chain of BTK (Q06187 whole entry): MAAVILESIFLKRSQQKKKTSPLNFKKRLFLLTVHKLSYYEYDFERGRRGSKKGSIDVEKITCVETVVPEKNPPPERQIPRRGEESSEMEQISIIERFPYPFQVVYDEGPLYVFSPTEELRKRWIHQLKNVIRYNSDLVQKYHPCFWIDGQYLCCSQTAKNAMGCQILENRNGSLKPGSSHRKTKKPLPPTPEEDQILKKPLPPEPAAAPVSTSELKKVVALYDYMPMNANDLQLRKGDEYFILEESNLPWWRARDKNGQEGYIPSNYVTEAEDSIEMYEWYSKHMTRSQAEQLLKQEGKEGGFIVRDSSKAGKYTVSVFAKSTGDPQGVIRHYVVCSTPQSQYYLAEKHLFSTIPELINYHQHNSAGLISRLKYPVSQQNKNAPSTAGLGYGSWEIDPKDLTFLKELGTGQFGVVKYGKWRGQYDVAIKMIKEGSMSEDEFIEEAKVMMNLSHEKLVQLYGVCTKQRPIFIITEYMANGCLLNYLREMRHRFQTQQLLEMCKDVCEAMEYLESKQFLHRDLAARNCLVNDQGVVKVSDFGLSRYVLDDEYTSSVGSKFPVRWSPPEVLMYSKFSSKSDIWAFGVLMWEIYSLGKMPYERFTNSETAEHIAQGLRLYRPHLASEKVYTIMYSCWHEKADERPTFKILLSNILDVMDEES

SMILES | Dmax [1] | DC50 [1] | pIC50 [2] | pIC50 [3]
Nc1ncnc2c1c(-c1ccc(Oc3ccccc3)cc1)nn2[C@@H]1CCCN(C2CCN(CCCN3CCC(c4ccc5c(c4)CN(C4CCC(=O)NC4=O)C5=O)CC3)CC2)C1 (stereo partly drawn) [Compound 154, 3-(5-(1-(3-((R)-3-(4-amino-3-(4-phenoxyphenyl)-1H-pyrazolo[3,4-d]pyrimidin-1-yl)-[1,4′-bipiperidin]-1′-yl)propyl)piperidin-4-yl)-1-oxoisoindolin-2-yl)piperidine-2,6-dione] | > 75% | > 0.05 µM | < 5.00 | < 5.00
Nc1ncnc2c1c(-c1ccc(Oc3ccccc3)cc1)nn2[C@@H]1CCCN(C2CCN(C(=O)N3CCC(c4ccc5c(c4)C(=O)N(C4CCC(=O)NC4=O)C5=O)CC3)CC2)C1 (stereo partly drawn) [Compound 157, 5-(1-((R)-3-(4-amino-3-(4-phenoxyphenyl)-1H-pyrazolo[3,4-d]pyrimidin-1-yl)-[1,4′-bipiperidine]-1′-carbonyl)piperidin-4-yl)-2-(2,6-dioxopiperidin-3-yl)isoindoline-1,3-dione] | > 50% | > 0.05 µM | < 5.00 | < 5.00
Nc1ncnc2c1c(-c1ccc(Oc3ccccc3)cc1)nn2[C@@H]1CCCN(C(=O)N2CCC(CCCN3CCC(c4ccc5c(c4)CN(C4CCC(=O)NC4=O)C5=O)CC3)CC2)C1 (stereo partly drawn) [Compound 116, 3-(5-(1-(3-(1-((R)-3-(4-amino-3-(4-phenoxyphenyl)-1H-pyrazolo[3,4-d]pyrimidin-1-yl)piperidine-1-carbonyl)piperidin-4-yl)propyl)piperidin-4-yl)-1-oxoisoindolin-2-yl)piperidine-2,6-dione] | > 75% | > 0.05 µM | < 5.00 | < 5.00
Nc1ncnc2c1c(-c1ccc(Oc3ccccc3)cc1)nn2[C@@H]1CCCN(C2CCN(C(=O)N3CCC(C4CCN(c5ccc6c(c5)CN(C5CCC(=O)NC5=O)C6=O)CC4)CC3)CC2)C1 (stereo partly drawn) [Compound 164, 3-(5-(1′-((R)-3-(4-amino-3-(4-phenoxyphenyl)-1H-pyrazolo[3,4-d]pyrimidin-1-yl)-[1,4′-bipiperidine]-1′-carbonyl)-[4,4′-bipiperidin]-1-yl)-1-oxoisoindolin-2-yl)piperidine-2,6-dione] | > 75% | 0.01 to 0.05 µM | < 5.00 | 5.00 to 6.00
Nc1ncnc2c1c(-c1ccc(Oc3ccccc3)cc1)nn2[C@@H]1CCCN(CC2CCN(CC3CCN(c4ccc5c(c4)C(=O)N(C4CCC(=O)NC4=O)C5=O)CC3)CC2)C1 (stereo partly drawn) [Compound 129, 5-(4-((4-(((R)-3-(4-amino-3-(4-phenoxyphenyl)-1H-pyrazolo[3,4-d]pyrimidin-1-yl)piperidin-1-yl)methyl)piperidin-1-yl)methyl)piperidin-1-yl)-2-(2,6-dioxopiperidin-3-yl)isoindoline-1,3-dione] | > 75% | 0.01 to 0.05 µM | < 5.00 | < 5.00
Nc1ncnc2c1c(-c1ccc(Oc3ccccc3)cc1)nn2[C@@H]1CCCN(C(=O)N2CCN(CCCN3CCN(c4ccc5c(c4)C(=O)N(C4CCC(=O)NC4=O)C5=O)CC3)CC2)C1 (stereo partly drawn) [Compound 107, 5-(4-(3-(4-((R)-3-(4-amino-3-(4-phenoxyphenyl)-1H-pyrazolo[3,4-d]pyrimidin-1-yl)piperidine-1-carbonyl)piperazin-1-yl)propyl)piperazin-1-yl)-2-(2,6-dioxopiperidin-3-yl)isoindoline-1,3-dione] | > 75% | > 0.05 µM | < 5.00 | 5.00 to 6.00
Nc1ncnc2c1c(-c1ccc(Oc3ccccc3)cc1)nn2C1CCN(C(=O)N2CCC(N3CCC(c4ccc5c(c4)CN(C4CCC(=O)NC4=O)C5=O)CC3)CC2)CC1 (centres unmarked) [Compound 84, 3-(5-(1′-(4-(4-amino-3-(4-phenoxyphenyl)-1H-pyrazolo[3,4-d]pyrimidin-1-yl)piperidine-1-carbonyl)-[1,4′-bipiperidin]-4-yl)-1-oxoisoindolin-2-yl)piperidine-2,6-dione] | > 75% | > 0.05 µM | < 5.00 | < 5.00
Nc1ncnc2c1c(-c1ccc(Oc3ccccc3)cc1)nn2[C@@H]1CCCN(C2CCN(C(=O)N3CCN(CCCN4CCN(c5ccc6c(c5)CN(C5CCC(=O)NC5=O)C6=O)CC4)CC3)CC2)C1 (stereo partly drawn) [Compound 188, 3-(5-(4-(3-(4-((R)-3-(4-amino-3-(4-phenoxyphenyl)-1H-pyrazolo[3,4-d]pyrimidin-1-yl)-[1,4′-bipiperidine]-1′-carbonyl)piperazin-1-yl)propyl)piperazin-1-yl)-1-oxoisoindolin-2-yl)piperidine-2,6-dione] | > 75% | > 0.05 µM | 5.00 to 6.00 | 5.00 to 6.00
Nc1ncnc2c1c(-c1ccc(Oc3ccccc3)cc1)nn2[C@@H]1CCCN(C2CCN(CCC3CCN(c4ccc5c(c4)CN(C4CCC(=O)NC4=O)C5=O)CC3)CC2)C1 (stereo partly drawn) [Compound 146, 3-(5-(4-(2-((R)-3-(4-amino-3-(4-phenoxyphenyl)-1H-pyrazolo[3,4-d]pyrimidin-1-yl)-[1,4′-bipiperidin]-1′-yl)ethyl)piperidin-1-yl)-1-oxoisoindolin-2-yl)piperidine-2,6-dione] | > 75% | > 0.05 µM | < 5.00 | 5.00 to 6.00

The next lines start with results.

Dmax [1] | DC50 [1] | SMILES | pIC50 [2] | pIC50 [3]
> 90% | 0.01 to 0.05 µM | Nc1ncnc2c1c(-c1ccc(Oc3ccccc3)cc1)nn2[C@@H]1CCCN(CC2CCN(CCN3CCN(c4ccc5c(c4)C(=O)N(C4CCC(=O)NC4=O)C5=O)CC3)CC2)C1 (stereo partly drawn) [Compound 133, 5-(4-(2-(4-(((R)-3-(4-amino-3-(4-phenoxyphenyl)-1H-pyrazolo[3,4-d]pyrimidin-1-yl)piperidin-1-yl)methyl)piperidin-1-yl)ethyl)piperazin-1-yl)-2-(2,6-dioxopiperidin-3-yl)isoindoline-1,3-dione] | 5.00 to 6.00 | > 6.00
> 90% | 0.01 to 0.05 µM | Nc1ncnc2c1c(-c1ccc(Oc3ccccc3)cc1)nn2C1CCN(C(=O)N2CCC(CCC3CCN(c4ccc5c(c4)C(=O)N(C4CCC(=O)NC4=O)C5=O)CC3)CC2)CC1 (centres unmarked) [Compound 101, 5-(4-(2-(1-(4-(4-amino-3-(4-phenoxyphenyl)-1H-pyrazolo[3,4-d]pyrimidin-1-yl)piperidine-1-carbonyl)piperidin-4-yl)ethyl)piperidin-1-yl)-2-(2,6-dioxopiperidin-3-yl)isoindoline-1,3-dione] | < 5.00 | < 5.00
> 75% | 0.01 to 0.05 µM | Nc1ncnc2c1c(-c1ccc(Oc3ccccc3)cc1)nn2[C@@H]1CCCN(C2CCN(C(=O)N3CCN(CCCN4CCC(c5ccc6c(c5)CN(C5CCC(=O)NC5=O)C6=O)CC4)CC3)CC2)C1 (stereo partly drawn) [Compound 192, 3-(5-(1-(3-(4-((R)-3-(4-amino-3-(4-phenoxyphenyl)-1H-pyrazolo[3,4-d]pyrimidin-1-yl)-[1,4′-bipiperidine]-1′-carbonyl)piperazin-1-yl)propyl)piperidin-4-yl)-1-oxoisoindolin-2-yl)piperidine-2,6-dione] | < 5.00 | < 5.00
> 90% | < 0.01 µM | Nc1ncnc2c1c(-c1ccc(Oc3ccccc3)cc1)nn2C1CCN(C(=O)N2CCC(CN3CCC(c4ccc5c(c4)CN(C4CCC(=O)NC4=O)C5=O)CC3)CC2)CC1 (centres unmarked) [Compound 92, 3-(5-(1-((1-(4-(4-amino-3-(4-phenoxyphenyl)-1H-pyrazolo[3,4-d]pyrimidin-1-yl)piperidine-1-carbonyl)piperidin-4-yl)methyl)piperidin-4-yl)-1-oxoisoindolin-2-yl)piperidine-2,6-dione] | 5.00 to 6.00 | > 6.00
> 90% | 0.01 to 0.05 µM | Nc1ncnc2c1c(-c1ccc(Oc3ccccc3)cc1)nn2[C@@H]1CCCN(C2CCN(C(=O)N3CCC(CN4CCC(c5ccc6c(c5)CN(C5CCC(=O)NC5=O)C6=O)CC4)CC3)CC2)C1 (stereo partly drawn) [Compound 174, 3-(5-(1-((1-((R)-3-(4-amino-3-(4-phenoxyphenyl)-1H-pyrazolo[3,4-d]pyrimidin-1-yl)-[1,4′-bipiperidine]-1′-carbonyl)piperidin-4-yl)methyl)piperidin-4-yl)-1-oxoisoindolin-2-yl)piperidine-2,6-dione] | 5.00 to 6.00 | 5.00 to 6.00
> 90% | 0.01 to 0.05 µM | Nc1ncnc2c1c(-c1ccc(Oc3ccccc3)cc1)nn2C1CCCN(CCOCCN2CCC(c3ccc4c(c3)CN(C3CCC(=O)NC3=O)C4=O)CC2)C1 (centres unmarked) [Compound 16, 3-(5-(1-(2-(2-(3-(4-amino-3-(4-phenoxyphenyl)-1H-pyrazolo[3,4-d]pyrimidin-1-yl)piperidin-1-yl)ethoxy)ethyl)piperidin-4-yl)-1-oxoisoindolin-2-yl)piperidine-2,6-dione] | 5.00 to 6.00 | 5.00 to 6.00
> 90% | < 0.01 µM | Nc1ncnc2c1c(-c1ccc(Oc3ccccc3)cc1)nn2C1CCCN(CCOCCOCCC2CCN(c3ccc4c(c3)C(=O)N(C3CCC(=O)NC3=O)C4=O)CC2)C1 (centres unmarked) [Compound 21, 5-(4-(2-(2-(2-(3-(4-amino-3-(4-phenoxyphenyl)-1H-pyrazolo[3,4-d]pyrimidin-1-yl)piperidin-1-yl)ethoxy)ethoxy)ethyl)piperidin-1-yl)-2-(2,6-dioxopiperidin-3-yl)isoindoline-1,3-dione] | 5.00 to 6.00 | 5.00 to 6.00
> 90% | < 0.01 µM | Nc1ncnc2c1c(-c1ccc(Oc3ccccc3)cc1)nn2[C@@H]1CCCN(C(=O)N2CCN(CCN3CCC(c4ccc5c(c4)CN(C4CCC(=O)NC4=O)C5=O)CC3)CC2)C1 (stereo partly drawn) [Compound 70, 3-(5-(1-(2-(4-((R)-3-(4-amino-3-(4-phenoxyphenyl)-1H-pyrazolo[3,4-d]pyrimidin-1-yl)piperidine-1-carbonyl)piperazin-1-yl)ethyl)piperidin-4-yl)-1-oxoisoindolin-2-yl)piperidine-2,6-dione] | 5.00 to 6.00 | 5.00 to 6.00
